Measured values taken from PubChem BioAssay AID256 (DTP/NCI, 2004).
Values joined by “and” are separate entries in the source; they are usually repeats but may differ in a detail not shown here. Equal values may be shown once. Toxic doses and inconclusive results are not listed.

System: CD2F1 mice, L1210 leukemia ip, survival T/C
Experiment: NCI In Vivo Anticancer Drug Screen. Data for tumor model L1210 Leukemia (intraperitoneal) in CD2F1 (CDF1) mice
Details: higher = longer survival
In short: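 Vehicle-treated tumor-bearing mice served as controls (C) for compound-treated mice (T). Reported figure is T divided by C.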

N[C@@H](Cc1ccc(N(CCCl)CCCl)cc1)C(=O)O
T/C (endpoint: mean survival time, dose: 0.25 mg/kg/injection, schedule: Q01DX009 (ip), vehicle: Klucel (hydroxypropylcellulose) (HPC)): 106 % of control and 108 % of control
T/C (endpoint: mean survival time, dose: 0.25 mg/kg/injection, schedule: Q01DX009 (ip), vehicle: saline): 106 % of control
T/C (endpoint: mean survival time, dose: 0.25 mg/kg/injection, schedule: Q04DX003 (ip), vehicle: saline): 113 % of control
T/C (endpoint: mean survival time, dose: 0.5 mg/kg/injection, schedule: Q01DX009 (ip), vehicle: water): 113 % of control and 112 % of control
T/C (endpoint: mean survival time, dose: 0.5 mg/kg/injection, schedule: Q04DX003 (ip), vehicle: saline): 118 % of control
T/C (endpoint: mean survival time, dose: 0.75 mg/kg/injection, schedule: Q01DX009 (ip), vehicle: Klucel (hydroxypropylcellulose) (HPC)): 115 % of control
T/C (endpoint: mean survival time, dose: 1.0 mg/kg/injection, schedule: Q01DX009 (ip), vehicle: water): 115 % of control and 123 % of control
T/C (endpoint: mean survival time, dose: 1.0 mg/kg/injection, schedule: Q## X010 (oral), vehicle: saline): 118 % of control
T/C (endpoint: mean survival time, dose: 2.0 mg/kg/injection, schedule: Q01DX001 (ip), vehicle: Klucel (hydroxypropylcellulose) (HPC)): 118 % of control
T/C (endpoint: mean survival time, dose: 2.0 mg/kg/injection, schedule: Q01DX001 (ip), vehicle: other): 108 % of control
T/C (endpoint: mean survival time, dose: 2.0 mg/kg/injection, schedule: Q01DX001 (ip), vehicle: saline with Tween-80): 122 % of control
T/C (endpoint: mean survival time, dose: 2.0 mg/kg/injection, schedule: Q01DX005 (oral), vehicle: saline): 121 % of control
T/C (endpoint: mean survival time, dose: 2.0 mg/kg/injection, schedule: Q01DX007 (ip), vehicle: saline): 166 % of control
T/C (endpoint: mean survival time, dose: 2.0 mg/kg/injection, schedule: Q01DX009 (ip), vehicle: water): 153 % of control
T/C (endpoint: mean survival time, dose: 2.0 mg/kg/injection, schedule: Q## X016 (oral), vehicle: saline): 103 % of control
T/C (endpoint: mean survival time, dose: 2.5 mg/kg/injection, schedule: Q01DX009 (ip), vehicle: saline): 166 % of control
T/C (endpoint: mean survival time, dose: 2.5 mg/kg/injection, schedule: Q04DX003 (ip), vehicle: saline): 153 % of control
T/C (endpoint: mean survival time, dose: 3.0 mg/kg/injection, schedule: Q01DX009 (ip), vehicle: Klucel (hydroxypropylcellulose) (HPC)): 164 % of control
T/C (endpoint: mean survival time, dose: 4.0 mg/kg/injection, schedule: Q01DX001 (ip), vehicle: Klucel (hydroxypropylcellulose) (HPC)): 119 % of control
T/C (endpoint: mean survival time, dose: 4.0 mg/kg/injection, schedule: Q01DX001 (ip), vehicle: other): 121 % of control
T/C (endpoint: mean survival time, dose: 4.0 mg/kg/injection, schedule: Q01DX007 (ip), vehicle: saline): 168 % of control
T/C (endpoint: mean survival time, dose: 4.0 mg/kg/injection, schedule: Q01DX009 (ip), vehicle: water): 155 % of control and 208 % of control
T/C (endpoint: mean survival time, dose: 4.0 mg/kg/injection, schedule: Q03DX003 (ip), vehicle: saline): 170 % of control
T/C (endpoint: mean survival time, dose: 4.0 mg/kg/injection, schedule: Q## X010 (ip), vehicle: saline): 160 % of control
T/C (endpoint: mean survival time, dose: 4.0 mg/kg/injection, schedule: Q## X016 (oral), vehicle: saline): 104 % of control
T/C (endpoint: mean survival time, dose: 4.5 mg/kg/injection, schedule: Q04DX003 (ip), vehicle: saline): 152 % of control
T/C (endpoint: mean survival time, dose: 5.0 mg/kg/injection, schedule: Q01DX009 (ip), vehicle: saline): 198 % of control
T/C (endpoint: mean survival time, dose: 6.0 mg/kg/injection, schedule: Q04DX003 (ip), vehicle: saline): 158 % of control
T/C (endpoint: mean survival time, dose: 7.5 mg/kg/injection, schedule: Q01DX001 (ip), vehicle: saline): 158 % of control
T/C (endpoint: mean survival time, dose: 7.5 mg/kg/injection, schedule: Q01DX009 (ip), vehicle: saline): 198 % of control
T/C (endpoint: mean survival time, dose: 7.5 mg/kg/injection, schedule: Q04DX003 (ip), vehicle: saline): 198 % of control and 266 % of control
T/C (endpoint: mean survival time, dose: 8.0 mg/kg/injection, schedule: Q01DX001 (ip), vehicle: DMSO): 180 % of control
T/C (endpoint: mean survival time, dose: 8.0 mg/kg/injection, schedule: Q01DX001 (ip), vehicle: Klucel (hydroxypropylcellulose) (HPC)): 180 % of control
T/C (endpoint: mean survival time, dose: 8.0 mg/kg/injection, schedule: Q01DX001 (ip), vehicle: saline with Tween-80): 165 % of control
T/C (endpoint: mean survival time, dose: 8.0 mg/kg/injection, schedule: Q01DX009 (ip), vehicle: water): 120 % of control and 108 % of control
T/C (endpoint: mean survival time, dose: 8.0 mg/kg/injection, schedule: Q03DX003 (ip), vehicle: saline): 211 % of control
T/C (endpoint: mean survival time, dose: 8.0 mg/kg/injection, schedule: Q## X010 (oral), vehicle: saline): 96 % of control
T/C (endpoint: mean survival time, dose: 9.0 mg/kg/injection, schedule: Q04DX003 (ip), vehicle: saline): 217 % of control
T/C (endpoint: mean survival time, dose: 12.0 mg/kg/injection, schedule: Q04DX003 (ip), vehicle: saline): 240 % of control
T/C (endpoint: mean survival time, dose: 16.0 mg/kg/injection, schedule: Q01DX001 (ip), vehicle: DMSO): 221 % of control
T/C (endpoint: mean survival time, dose: 16.0 mg/kg/injection, schedule: Q01DX001 (ip), vehicle: Klucel (hydroxypropylcellulose) (HPC)): 189 % of control
T/C (endpoint: mean survival time, dose: 16.0 mg/kg/injection, schedule: Q01DX001 (ip), vehicle: saline with Tween-80): 265 % of control
T/C (endpoint: mean survival time, dose: 16.0 mg/kg/injection, schedule: Q## X016 (oral), vehicle: saline): 164 % of control
T/C (endpoint: mean survival time, dose: 20.0 mg/kg/injection, schedule: Q01DX001 (ip), vehicle: saline): 303 % of control and 427 % of control
T/C (endpoint: mean survival time, dose: 32.0 mg/kg/injection, schedule: Q01DX001 (ip), vehicle: Klucel (hydroxypropylcellulose) (HPC)): 115 % of control
T/C (endpoint: mean survival time, dose: 32.0 mg/kg/injection, schedule: Q01DX001 (ip), vehicle: other): 217 % of control
T/C (endpoint: mean survival time, dose: 32.0 mg/kg/injection, schedule: Q01DX001 (ip), vehicle: saline with Tween-80): 183 % of control
T/C (endpoint: median survival time, dose: 1.0 mg/kg/injection, schedule: Q01DX009 (ip), vehicle: saline): 151 % of control
T/C (endpoint: median survival time, dose: 1.25 mg/kg/injection, schedule: Q01DX009 (ip), vehicle: saline): 170 % of control
T/C (endpoint: median survival time, dose: 1.5 mg/kg/injection, schedule: Q04DX003 (ip), vehicle: Klucel (hydroxypropylcellulose) (HPC)): 191 % of control
T/C (endpoint: median survival time, dose: 2.0 mg/kg/injection, schedule: Q01DX005 (ip), vehicle: saline): 152 % of control
T/C (endpoint: median survival time, dose: 2.0 mg/kg/injection, schedule: Q01DX009 (ip), vehicle: saline): 176 % of control
T/C (endpoint: median survival time, dose: 2.5 mg/kg/injection, schedule: Q01DX001 (ip), vehicle: Klucel (hydroxypropylcellulose) (HPC)): 150 % of control and 195 % of control
T/C (endpoint: median survival time, dose: 2.5 mg/kg/injection, schedule: Q01DX009 (ip), vehicle: saline): 205 % of control
T/C (endpoint: median survival time, dose: 3.0 mg/kg/injection, schedule: Q04DX003 (ip), vehicle: Klucel (hydroxypropylcellulose) (HPC)): 182 % of control
T/C (endpoint: median survival time, dose: 3.75 mg/kg/injection, schedule: Q01DX009 (ip), vehicle: saline): 158 % of control
T/C (endpoint: median survival time, dose: 4.0 mg/kg/injection, schedule: Q01DX005 (ip), vehicle: saline): 176 % of control
T/C (endpoint: median survival time, dose: 4.0 mg/kg/injection, schedule: Q01DX009 (ip), vehicle: saline): 227 % of control
T/C (endpoint: median survival time, dose: 5.0 mg/kg/injection, schedule: Q01DX009 (ip), vehicle: saline): 357 % of control
T/C (endpoint: median survival time, dose: 8.0 mg/kg/injection, schedule: Q01DX005 (ip), vehicle: saline): 211 % of control
T/C (endpoint: median survival time, dose: 8.0 mg/kg/injection, schedule: Q01DX009 (ip), vehicle: saline): 234 % of control
T/C (endpoint: median survival time, dose: 10.0 mg/kg/injection, schedule: Q01DX001 (ip), vehicle: Klucel (hydroxypropylcellulose) (HPC)): 118 % of control
T/C (endpoint: median survival time, dose: 12.0 mg/kg/injection, schedule: Q01DX001 (ip), vehicle: saline): 183 % of control and 193 % of control
T/C (endpoint: median survival time, dose: 15.0 mg/kg/injection, schedule: Q01DX009 (ip), vehicle: saline): 114 % of control and 105 % of control

O=S(=O)(NC(=S)Nc1ccc(Cl)cc1)c1ccccc1
T/C (endpoint: mean survival time, dose: 100.0 mg/kg/injection, schedule: Q01DX009 (ip), vehicle: saline with Tween-80): 93 % of control
T/C (endpoint: mean survival time, dose: 200.0 mg/kg/injection, schedule: Q01DX009 (ip), vehicle: saline with Tween-80): 109 % of control

N#CC(C(=O)O)C1CCCCC1=O (stereo unspecified)
T/C (endpoint: median survival time, dose: 50.0 mg/kg/injection, schedule: Q04DX002 (ip), vehicle: saline with Tween-80): 100 % of control
T/C (endpoint: median survival time, dose: 100.0 mg/kg/injection, schedule: Q04DX002 (ip), vehicle: saline with Tween-80): 100 % of control
T/C (endpoint: median survival time, dose: 200.0 mg/kg/injection, schedule: Q04DX002 (ip), vehicle: saline with Tween-80): 100 % of control

CCOC(=O)NCCCNC(=O)OCC
T/C (endpoint: mean survival time, dose: 100.0 mg/kg/injection, schedule: Q01DX009 (ip), vehicle: saline): 104 % of control
T/C (endpoint: mean survival time, dose: 200.0 mg/kg/injection, schedule: Q01DX009 (ip), vehicle: saline): 95 % of control
T/C (endpoint: mean survival time, dose: 400.0 mg/kg/injection, schedule: Q01DX009 (ip), vehicle: saline): 93 % of control

CO[C@@]12[C@@H]3N[C@@H]3CN1C1=C(C(=O)C(Nc3ccc(S)cc3)=C(C)C1=O)[C@@H]2COC(N)=O
T/C (endpoint: mean survival time, dose: 1.5 mg/kg/injection, schedule: Q01DX001 (ip), vehicle: water): 108 % of control
T/C (endpoint: mean survival time, dose: 3.0 mg/kg/injection, schedule: Q01DX001 (ip), vehicle: water): 104 % of control
T/C (endpoint: mean survival time, dose: 6.0 mg/kg/injection, schedule: Q01DX001 (ip), vehicle: water): 97 % of control
T/C (endpoint: mean survival time, dose: 12.0 mg/kg/injection, schedule: Q01DX001 (ip), vehicle: water): 98 % of control
T/C (endpoint: mean survival time, dose: 16.7 mg/kg/injection, schedule: Q01DX001 (ip), vehicle: distilled water + Tween-80): 92 % of control
T/C (endpoint: mean survival time, dose: 24.0 mg/kg/injection, schedule: Q01DX001 (ip), vehicle: distilled water + Tween-80): 102 % of control
T/C (endpoint: mean survival time, dose: 24.0 mg/kg/injection, schedule: Q01DX001 (ip), vehicle: water): 98 % of control
T/C (endpoint: mean survival time, dose: 34.2 mg/kg/injection, schedule: Q01DX001 (ip), vehicle: distilled water + Tween-80): 104 % of control
T/C (endpoint: mean survival time, dose: 48.9 mg/kg/injection, schedule: Q01DX001 (ip), vehicle: distilled water + Tween-80): 96 % of control
